Here are results for 4 compounds from patent publication US11472778B2, “Hepatitis C virus NS3/4A protease inhibitors” (priority 2017, dated 2022).

For data set [1], the system named is HCV replicon R155K variant in Huh7 cells. The experiment in a line: microbe, parasite or virus in culture. The class given is cell-based, Hepatitis C virus. The note with it: for EC50: Hepatitis C virus. The method in brief:
(§1)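 Variants made by site-directed mutagenesis in a Con1 (genotype 1b) luciferase reporter replicon carrying H77 (genotype 1a) NS3. Replicon RNA electroporated into Huh7 cells; luciferase (RLU) measured 96 h post-electroporation across increasing protease inhibitor concentrations.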

Data set [2] relates to HCV replicon A156T variant in Huh7 cells. As to the kind of experiment: microbe, parasite or virus in culture. The class given is cell-based, Hepatitis C virus. The conditions noted are these: for EC50: Hepatitis C virus. An outline of the steps: as §1
The subject of data set [3] is HCV replicon D168A variant in Huh7 cells. The experiment in a line: microbe, parasite or virus in culture. The class given is cell-based, Hepatitis C virus. The conditions noted are these: for EC50: Hepatitis C virus. An outline of the steps: as §1
Data set [4] relates to drug resistant HCV variants (R155K, A156T, D168A, D168V). As to the kind of experiment: Replicon antiviral assays, collective statements on drug resistant variants. The note with it: range over all variants tested. It counts as cell-based, Hepatitis C virus. How it is done:
Mutations (R155K, A516T, D168A and D168V) were constructed by site-directed mutagenesis using a Con1 (genotype 1b) luciferase reporter replicon containing the H77 (genotype 1a) NS3 sequence.
Replicon RNA of each protease variant was introduced into Huh7 cells by electroporation. Replication was then assessed in the presence of increasing concentrations of protease inhibitors by measuring luciferase activity (relative light units) 96 h after electroporation.
Mutations (R155K, D168A and A156T) were constructed by site-directed mutagenesis using a Con1 (genotype 1b) luciferase reporter replicon containing the H77 (genotype 1a) NS3 sequence.^6 Replicon RNA of each protease variant was introduced into Huh7 cells by electroporation. Replication was then assessed in the presence of increasing concentrations of protease inhibitors by measuring luciferase activity (relative light units) 96 h after electroporation.

The subject of data set [5] is HCV replicon D168V variant in Huh7 cells. The experiment in a line: microbe, parasite or virus in culture. It counts as cell-based, Hepatitis C virus. The note with it: for EC50: Hepatitis C virus. The method in brief: as §1
Data set [6] deals with GT1a R155K NS3/4A protease (UniProt P27958, R1181K, species not given). It counts as biochemical, Hepatitis C virus. An outline of the steps:
(§2)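 2 nM NS3/4A protease (GT1a, R155K and D168A constructs) pre-incubated 1 h at room temperature with increasing inhibitor concentrations in 50 mM Tris pH 7.5, 5% glycerol, 10 mM DTT, 0.6 mM LDAO, 4% DMSO. Three independent data sets per inhibitor and construct; ΔG of binding derived from Ki as ΔG=RTlnKi.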

Data set [7] deals with GT1a R155K NS3/4A protease. The class given is biochemical, Hepatitis C virus. The conditions noted are these: fold change in Ki, R155K relative to WT. The method in brief:
as §2

For data set [8], the system named is wild-type HCV replicon in Huh7 cells. As to the kind of experiment: Cell-based drug susceptibility (replicon) assay, wild-type. The note with it: Hepatitis C virus, read-out: Replicon EC50 (nM) WT. An outline of the steps:
as §1

Data set [9] addresses T1, wild-type GT1a NS3/4A protease (UniProt P27958).
T1 construct: Ki WT; other: wild-type HCV NS3/4A protease
The class given is biochemical, Hepatitis C virus. An outline of the steps: (§3)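 NS3/4A protease (2 nM; wild-type GT1a or D168A) pre-incubated 1 h at room temperature with increasing inhibitor in 50 mM Tris pH 7.5, 5% glycerol, 10 mM DTT, 0.6 mM LDAO, 4% DMSO. Ki from three independent data sets per construct; ΔG=RTlnKi.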

Data set [10] deals with T2, GT1a D168A NS3/4A protease (UniProt P27958, D1194A, species not given).
T2 construct: rows headed: Ki (nM) D168A; Ki D168A; other: D168A variant
The class given is biochemical, Hepatitis C virus. An outline of the steps:
as §3

In data set [11] the target is GT1a D168A NS3/4A protease. It counts as biochemical, Hepatitis C virus. The conditions noted are these: for Ki (Fold Change) D168A: Table 6, with respect to GT1a wild-type. An outline of the steps:
as §3

For data set [12] the following is noted: rcm bond; 15-membered ring; Zhan 1b; 1,2-DCE; 6.3 mM; 70.0 °C.
Data set [13] has as its target T3, GT3a NS3/4A protease (Hepatitis C virus genotype 3a, UniProt Q81495).
T3 construct: drug-resistant variant D168A, and GT3a NS3/4A protease; made in house; host or cells: Escherichia coli BL21(DE3)
The experiment in a line: biochemical. The method in brief:
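Protease at 2 nM pre-incubated 1 h at room temperature with increasing inhibitor concentrations in 50 mM Tris, 5% glycerol, 10 mM DTT, 0.6 mM LDAO, 4% DMSO. Three independent data sets per inhibitor and construct.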

Data set [14] addresses T4, wild-type GT1a NS3/4A protease (UniProt P27958, C1185S, species not given).
T4 construct: P4/P4-P5 modified macrocycles
It counts as biochemical, Hepatitis C virus. The note with it: read-out: Ki (nM) GT1a WT; Table 6; P4/P4-P5 modified macrocycles. An outline of the steps: as §3

The target in data set [15] is T5, GT1a D168A NS3/4A protease (UniProt P27958, C1185S/D1194A, species not given).
T5 construct: P4/P4-P5 modified macrocycles
The class given is biochemical, Hepatitis C virus. The conditions noted are these: read-out: Ki (nM) D168A; Table 6; P4/P4-P5 modified macrocycles. An outline of the steps: as §3

Data set [16] concerns the target T6, wild-type GT1a NS3/4A protease (UniProt P27958, C1185S, species not given).
T6 construct: Ki (nM) GT1a WT NS3/4A Protease
The class given is biochemical, Hepatitis C virus. The note with it: read-out: Ki (nM) GT1a WT NS3/4A Protease. An outline of the steps: as §3

For data set [17], the target named is T7, GT1a D168A NS3/4A protease (UniProt P27958, C1185S/D1194A, species not given).
T7 construct: Ki (nM) GT1a D168A NS3/4A Protease
The class given is biochemical, Hepatitis C virus. The conditions noted are these: read-out: Ki (nM) GT1a D168A NS3/4A Protease. An outline of the steps: as §3

Setting [18] is: Table 4, relative to WT replicon.

Read-outs that look alike come from different tables or passages of the source.

T3 sequence (Q81495 1033-1214): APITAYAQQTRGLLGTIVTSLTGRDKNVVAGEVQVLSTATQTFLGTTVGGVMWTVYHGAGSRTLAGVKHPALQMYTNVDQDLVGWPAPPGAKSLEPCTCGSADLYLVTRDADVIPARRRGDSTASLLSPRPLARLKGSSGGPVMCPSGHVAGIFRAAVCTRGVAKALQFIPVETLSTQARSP

In the case of `C=C[C@@H]1C[C@]1(NC(=O)[C@@H]1C[C@@H](Oc2nc3cc(OC)ccc3nc2C)CN1C(=O)[C@@H](NC(=O)OC1CCCC1)C(C)(C)C)C(=O)NS(=O)(=O)C1(C)CC1` [Compound 12b, Cyclopentyl ((S)-1-((2S,4R)-4-((7-methoxy-3-methylquinoxalin-2-yl)oxy)-2-(((1R,2S)-1-(((1-methylcyclopropyl)sulfonyl)carbamoyl)-2-vinylcyclopropyl)carbamoyl)pyrrolidin-1-yl)-3,3-dimethyl-1-oxobutan-2-yl)carbamate], the half-maximal effective concentration (EC50) in data set [1] (Huh-7, read-out: Replicon EC50 (nM) R155K, Table 9) was 28 nM; in [2] (Huh-7, read-out: Replicon EC50 (nM) A156T, Table 9) it was 87 nM; in [3] (Huh-7, read-out: Replicon EC50 (nM) D168A, Table 9), 45 nM; in data set [5] (Huh-7, read-out: Replicon EC50 (nM) D168V, Table 9), 59 nM; in [8] (Huh-7, Table 9), 4.5 nM. Besides, in data set [1] (Table 9, relative to WT), the “Replicon EC50 (Fold change) R155K” value was “(6.2) fold”. In [2] (Table 9, relative to WT), the “Replicon EC50 (Fold change) A156T” value was “(19) fold”. The “Replicon EC50 (Fold change) D168A” value in [3] (Table 9, relative to WT) is recorded as “(10) fold”. Further, the “fold loss in replicon potency against drug resistant variants compared to WT” value in data set [4] was 5-20 fold. For the same compound, the “Replicon EC50 (Fold change) D168V” value in data set [5] (Table 9, relative to WT) is “(13) fold”. The Ki in [6] (read-out: Ki (nM) R155K, Table 8, linear inhibitors) was 10 ± 1.3 nM; in data set [6] (read-out: Ki R155K, R155K variant) it was 10 ± 1.3 nM; in data set [9] (read-out: Ki (nM) WT, Table 8, linear inhibitors) it was 7.1 ± 1.1 nM; in data set [9] (read-out: Ki WT, wild-type HCV NS3/4A protease), 7.1 ± 1.1 nM; in [10] (read-out: Ki (nM) D168A, Table 8, linear inhibitors), 140 ± 13 nM; in data set [10] (read-out: Ki D168A, D168A variant) it was 140 ± 13 nM. Moreover, the “Ki R155K (fold change)” value in data set [7] was found to be 1.4. For the same compound, in [11] (fold change in Ki, D168A relative to WT), the “Ki D168A (fold change)” value is on record as 20.
Regarding `COc1ccc2nc(C)c(O[C@@H]3C[C@H]4C(=O)N[C@]5(C(=O)NS(=O)(=O)C6(C)CC6)C[C@H]5/C=C\CCCCC[C@H](NC(=O)OC(C)(C)C)C(=O)N4C3)nc2c1` [Compound 19b, tert-Butyl ((2R,6S,13aS,14aR,16aS,Z)-2-((7-methoxy-3-methylquinoxalin-2-yl)oxy)-14a-(((1-methylcyclopropyl)sulfonyl)carbamoyl)-5,16-dioxo-1,2,3,5,6,7,8,9,10,11,13a,14,14a,15,16,16a-hexadecahydrocyclopropa[e]pyrrolo[1,2-a][1,4]diazacyclopentadecin-6-yl)carbamate], the ring closure, isolated yield in data set [12] was found to be 70%. Further, the EC50 in data set [1] (Huh-7, 96 h, read-out: Replicon EC50 (nM) R155K, Table 2, Huh7 cells, luciferase 96 h) turned out to be 0.8 nM; in data set [1] (Huh-7, read-out: Replicon EC50 (nM) R155K, Table 4) it was 0.8 nM; in data set [2] (Huh-7, 96 h, read-out: Replicon EC50 (nM) A156T, Table 2, Huh7 cells, luciferase 96 h) it was 1.57 nM; in [2] (Huh-7, read-out: Replicon EC50 (nM) A156T, Table 4), 1.57 nM; in [3] (Huh-7, 96 h, read-out: Replicon EC50 (nM) D168A, Table 2, Huh7 cells, luciferase 96 h) it was 2.37 nM; in data set [3] (Huh-7, read-out: Replicon EC50 (nM) D168A, Table 4), 2.37 nM. Further, the EC50 amounted to 1.6 nM in data set [5] (Huh-7, 96 h, read-out: Replicon EC50 (nM) D168V, Table 2, Huh7 cells, luciferase 96 h); 1.6 nM in [5] (Huh-7, read-out: Replicon EC50 (nM) D168V, Table 4); 0.3 nM in data set [8] (Huh-7, 96 h, Table 2, Huh7 cells, luciferase 96 h); 0.3 nM in data set [8] (Huh-7, Table 4). Besides, the “Replicon EC50 (Fold change) R155K” value in [1] (setting [18]) is recorded as “(3) fold”. In data set [2] (setting [18]), the “Replicon EC50 (Fold change) A156T” value is “(5) fold”. Moreover, the “Replicon EC50 (Fold change) D168A” value in data set [3] (setting [18]) is listed as “(8) fold”. Also, in data set [5] (setting [18]), the “Replicon EC50 (Fold change) D168V” value is recorded as “(5) fold”. Moreover, the Ki came out at 119 nM in data set [13]; 119 ± 18 nM in data set [13] (read-out: Ki (nM) GT3a NS3/4A Protease, Table 3); 3.6 nM in [14]; 52 nM in data set [15]; 3.6 nM in data set [16] (Table 1); 3.6 nM in data set [16] (Table 3). Besides, the Ki in data set [17] (Table 1) was found to be 52 nM; in data set [17] (Table 3), 52 ± 2.4 nM. In addition, the “Ki (Fold change) GT3a NS3/4A Protease” value in [13] (Table 3, Ki GT3a relative to GT1a WT) is listed as “(33) fold”. Besides, the “Ki (Fold change) GT1a D168A NS3/4A Protease” value in data set [11] (Table 3, Ki D168A relative to GT1a WT) is “(14) fold”. Moreover, the “Ki (Fold Change) D168A” value in data set [11] is given as “(14) fold”.
Take `COC(=O)N[C@H](C(=O)N[C@H]1CCCCC/C=C\[C@@H]2C[C@@]2(C(=O)NS(=O)(=O)C2(C)CC2)NC(=O)[C@@H]2C[C@@H](Oc3nc4cc(OC)ccc4nc3C)CN2C1=O)C1CCCC1` [Compound P4-P5-5, Methyl ((S)-1-cyclopentyl-2-(((2R,6S,13aS,14aR,16aS,Z)-2-((7-methoxy-3-methylquinoxalin-2-yl)oxy)-14a-(((1-methylcyclopropyl)sulfonyl)carbamoyl)-5,16-dioxo-1,2,3,5,6,7,8,9,10,11,13a,14,14a,15,16,16a-hexadecahydrocyclopropa[e]pyrrolo[1,2-a][1,4]diazacyclopentadecin-6-yl)amino)-2-oxoethyl)carbamate]: the Ki is 3.54 ± 0.13 nM in [14] and 31.6 ± 2.1 nM in data set [15]. For the same compound, the “Ki (Fold Change) D168A” value in [11] is on record as “(9) fold”.
`CC[C@H](C)[C@H](NC(C)=O)C(=O)N[C@H]1CCCCC/C=C\[C@@H]2C[C@@]2(C(=O)NS(=O)(=O)C2(C)CC2)NC(=O)[C@@H]2C[C@@H](Oc3nc4cc(OC)ccc4nc3C)CN2C1=O` [Compound P4-P5-6, (2R,6S,13aS,14aR,16aS,Z)-6-((2S,3S)-2-acetamido-3-methylpentanamido)-2-((7-methoxy-3-methylquinoxalin-2-yl)oxy)-N-((1-methylcyclopropyl)sulfonyl)-5,16-dioxo-1,2,3,6,7,8,9,10,11,13a,14,15,16,16a-tetradecahydrocyclopropa[e]pyrrolo[1,2-a][1,4]diazacyclopentadecine-14a(5H)-carboxamide]: the Ki in data set [14] was determined as 7.1 ± 0.24 nM; in [15], 81 ± 11 nM. Also, the “Ki (Fold Change) D168A” value in [11] is listed as “(11) fold”.
